The experiment concerns the target recombinant human Myt1 (Homo sapiens (Human), UniProt Q99640). As to the kind of experiment: Recombinant human Myt1 kinase ADP-Glo enzymatic assay. The class given is biochemical. As to conditions: recombinant human Myt1 18 nM, ATP 10 μM. The protocol: Detection of Myt1 kinase activity utilized a recombinant human Myt1 kinase assay measuring the hydrolysis of ATP using a commercially available ADP-Glo Assay (ADP-Glo™ Kinase Assay from Promega, 10 000 assays, #V9102). […] After this, 5 μL of compounds (diluted in reaction buffer to 0.5% DMSO) was added to the microplate and the plate was spun briefly and incubated at 22° C. for 15 minutes. Ultra-Pure Adenosine Triphosphate (ATP) solution (ADP-Glo kit from Promega) was diluted in reaction buffer and 5 μL was added to the microplate, spun down briefly and incubated for 60 minutes at 30° C. […] After the 60-minute incubation, 15 μL of ADP-Glo reagent was added and the plate was spun briefly and sealed and incubated in the dark for 40 minutes at 22° C. […] Luminescence was read using the Envision (250 ms integration). The IC50 and the % max inhibition were calculated for each inhibitor compound tested.
Chain of recombinant human Myt1 (Q99640 whole entry): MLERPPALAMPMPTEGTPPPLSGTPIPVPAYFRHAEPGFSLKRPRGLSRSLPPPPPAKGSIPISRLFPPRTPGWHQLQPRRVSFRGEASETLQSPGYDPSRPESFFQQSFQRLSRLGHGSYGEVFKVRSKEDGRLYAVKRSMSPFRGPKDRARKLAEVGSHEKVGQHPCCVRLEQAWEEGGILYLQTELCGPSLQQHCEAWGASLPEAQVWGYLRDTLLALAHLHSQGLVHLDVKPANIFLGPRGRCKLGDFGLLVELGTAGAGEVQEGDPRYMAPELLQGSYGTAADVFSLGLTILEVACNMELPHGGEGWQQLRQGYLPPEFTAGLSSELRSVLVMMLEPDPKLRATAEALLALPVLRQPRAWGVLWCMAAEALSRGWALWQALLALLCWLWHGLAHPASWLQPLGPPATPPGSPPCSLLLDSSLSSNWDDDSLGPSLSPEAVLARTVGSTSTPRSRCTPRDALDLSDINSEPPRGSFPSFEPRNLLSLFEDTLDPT
With `Cc1ccc(O)c(C)c1-n1c(N)c(C(N)=O)c2cc(Br)c(C)nc21` (single isomer, unassigned) [Compound 188], the IC50 was below 10 nM. Take `Cc1ccc(O)c(C)c1-n1c(N)c(C(N)=O)c2cc(Br)c(C)nc21` (single isomer, unassigned) [Compound 189]: the IC50 was 1010 nM. With `Cc1ccc(O)cc1-n1c(N)c(C(N)=O)c2nc(C3=CCCN(C(=O)OC(C)(C)C)C3)ccc21` [Compound 26], the IC50 is 2000 nM.

Turning to `Cc1ccc(O)c(C)c1-n1c(N)c(C(N)=O)c2nc(-c3nccs3)c(C)nc21` [Compound 31, 6-amino-5-(3-hydroxy-2,6-dimethyl-phenyl)-3-methyl-2-thiazol-2-yl-pyrrolo[2,3-b]pyrazine-7-carboxamide], the IC50 was below 10 nM. With `Cc1ccc(O)c(C)c1-n1c(N)c(C(N)=O)c2nc(-c3nc(C)c(C)s3)cnc21` [Compound 32], the IC50 is below 10 nM. `Cc1ccc(O)c(C)c1-n1c(N)c(C(N)=O)c2nc(-c3ccccn3)cnc21` [Compound 34]: the IC50 is below 10 nM. As to `Cc1ccc(O)c(C)c1-n1c(N)c(C(N)=O)c2nc(-c3ccnc(C(F)(F)F)c3)cnc21` [Compound 35, 6-amino-5-(3-hydroxy-2,6-dimethyl-phenyl)-2-[2-(trifluoromethyl)-4-pyridyl]pyrrolo[2,3-b]pyrazine-7-carboxamide], the IC50 is below 10 nM. As for `Cc1ccc(O)c(C)c1-n1c(N)c(C(N)=O)c2nc(-c3cncs3)cnc21` [Compound 37], the IC50 was below 10 nM. As to `Cc1ccc(O)c(C)c1-n1c(N)c(C(N)=O)c2nc(-c3cnccn3)cnc21` [Compound 38], the IC50 was below 10 nM. As for `Cc1ccc(O)c(C)c1-n1c(N)c(C(N)=O)c2nc(-c3ccns3)cnc21` [Compound 41], the IC50 is below 10 nM.

On to `Cc1c(O)ccc(Cl)c1-n1c(N)c(C(N)=O)c2nc(-c3nccs3)cnc21` [Compound 42], for which the IC50 was below 10 nM. Regarding `CNC(=O)C1CCN(c2cnc3c(n2)c(C(N)=O)c(N)n3-c2c(C)ccc(O)c2C)CC1` [Compound 46, 6-amino-5-(3-hydroxy-2,6-dimethyl-phenyl)-2-[4-(methylcarbamoyl)-1-piperidyl]pyrrolo[2,3-b]pyrazine-7-carboxamide], the IC50 was below 10 nM. As for `Cc1ccc(O)c(C)c1-n1c(N)c(C(N)=O)c2nc(-c3ccncn3)cnc21` [Compound 57], the IC50 is below 10 nM. With `Cc1ccc(O)c(C)c1-n1c(N)c(C(N)=O)c2nc(C3=CCC(C(=O)N(C)C)CC3)cnc21` (stereo not drawn) [Compound 58] the figure was below 10 nM; with `Cc1ccc(-c2cnc3c(n2)c(C(N)=O)c(N)n3-c2c(C)ccc(O)c2C)nc1` [Compound 61], below 10 nM; with `Cc1ccc(O)c(C)c1-n1c(N)c(C(N)=O)c2nc(-c3ccc(F)cn3)cnc21` [Compound 64], below 10 nM. For the molecule `Cc1ccc(O)c(C)c1-n1c(N)c(C(N)=O)c2nc(-c3c[nH]cn3)cnc21` [Compound 65], the IC50 was below 10 nM. Turning to `Cc1ccc(O)c(C)c1-n1c(N)c(C(N)=O)c2nc(-c3cn(C)cn3)cnc21` [Compound 76], the IC50 is below 10 nM.

For `Cc1ccc(O)c(C)c1-n1c(N)c(C(N)=O)c2nc(N3CCC(C(=O)N(C)C)CC3)cnc21` [Compound 80], the IC50 was below 10 nM. Regarding `Cc1ccc(O)c(C)c1-n1c(N)c(C(N)=O)c2nc(N3CCCCC3)cnc21` [Compound 81], the IC50 is below 10 nM. For `Cc1ccc(O)c(C)c1-n1c(N)c(C(N)=O)c2nc(C3CCCCC3)cnc21` [Compound 83], the IC50 was below 10 nM. With `Cc1ccc(O)c(C)c1-n1c(N)c(C(N)=O)c2nc(N3CCCC3)cnc21` [Compound 85] the figure was below 10 nM; with `Cc1ccc(O)c(C)c1-n1c(N)c(C(N)=O)c2nc(C3=CCCCC3)cnc21` [Compound 86], below 10 nM.

As to `CC(=O)N1CCN(c2cnc3c(n2)c(C(N)=O)c(N)n3-c2c(C)ccc(O)c2C)CC1` [Compound 87], the half-inhibitory concentration (IC50) is below 10 nM.

Turning to `CCN(CC)c1cnc2c(n1)c(C(N)=O)c(N)n2-c1c(C)ccc(O)c1C` [Compound 88], the IC50 was below 10 nM. Regarding `Cc1ccc(O)c(C)c1-n1c(N)c(C(N)=O)c2nc(N3CC4CCC(C3)O4)cnc21` [Compound 92], the IC50 is below 10 nM. With `Cc1ccc(O)c(C)c1-n1c(N)c(C(N)=O)c2nc(C3CC3)c(C)nc21` [Compound 100], the IC50 is below 10 nM. For `Cc1ccc(O)c(Cl)c1-n1c(N)c(C(N)=O)c2nc(C3CC3)cnc21` [Compound 104] the value was below 10 nM; for `Cc1ccc(O)c(C)c1-n1c(N)c(C(N)=O)c2cc(C(C)(C)O)cnc21` [Compound 131], below 10 nM. For `Cc1ccc(O)c(C)c1-n1c(N)c(C(N)=O)c2cc(C(C)C)cnc21` [Compound 138] the value was below 10 nM; for `Cc1ccc(O)c(C)c1-n1c(N)c(C(N)=O)c2cc(Br)cnc21` [Compound 141], below 10 nM. Regarding `Cc1ccc(O)c(C)c1-n1cc(C(N)=O)c2cc(C3CC3)cnc21` [Compound 143], the IC50 is below 10 nM. For the molecule `Cc1nc2c(C(N)=O)c(N)n(-c3c(Cl)ccc(O)c3C)c2nc1C` [Compound 168], the IC50 is below 10 nM.

Turning to `Cc1ccc(O)c(C)c1-n1c(N)c(C(N)=O)c2nc(C3CCC3)cnc21` [Compound 173, 6-amino-2-cyclobutyl-5-(3-hydroxy-2,6-dimethyl-phenyl)pyrrolo[2,3-b]pyrazine-7-carboxamide], the IC50 was below 10 nM. Consider `Cc1ccc(O)c(C)c1-n1c(N)c(C(N)=O)c2nc(C(C)(C)F)cnc21` [Compound 178, 6-amino-2-(1-fluoro-1-methyl-ethyl)-5-(3-hydroxy-2,6-dimethyl-phenyl)pyrrolo[2,3-b]pyrazine-7-carboxamide], for which the IC50 is below 10 nM.

Turning to `Cc1ccc(O)c(C)c1-n1c(N)c(C(N)=O)c2cc(Br)c(C)nc21` [Compound 187], the IC50 was below 10 nM. In the case of `Cc1ccc2c(C(N)=O)c(N)n(-c3c(C)ccc(O)c3C)c2n1` [Compound 193], the IC50 was below 10 nM. In the case of `Cc1ccc(O)c(C)c1-n1c(N)c(C(N)=O)c2nc(C3(C(F)(F)F)CC3)cnc21` [Compound 198, 6-amino-5-(3-hydroxy-2,6-dimethyl-phenyl)-2-[1-(trifluoromethyl)cyclopropyl]pyrrolo[2,3-b]pyrazine-7-carboxamide], the IC50 was below 10 nM. For the molecule `C=C(C)c1cnc2c(n1)c(C(N)=O)c(N)n2-c1c(C)ccc(O)c1C` [Compound 202], the IC50 was below 10 nM. Take `Cc1ccc(O)c(C)c1-n1c(N)c(C(N)=O)c2nc(C(N)=O)cnc21` [Compound 220, 6-amino-5-(3-hydroxy-2,6-dimethyl-phenyl)pyrrolo[2,3-b]pyrazine-2,7-dicarboxamide]: the IC50 was below 10 nM.

Turning to `Cc1ccc(O)c(C)c1-n1c(N)c(C(N)=O)c2ncc(C#CCC3CCOCC3)nc21` [Compound 222], the IC50 is below 10 nM. Turning to `Cc1ccc(O)c(C)c1-n1c(N)c(C(N)=O)c2ncc(C#CC(C)O)nc21` (stereo not drawn) [Compound 229], the IC50 came to 52 nM.

`Cc1ccc(O)c(C)c1-n1c(N)c(C(N)=O)c2ncc(C#CC3(O)CCOCC3)nc21` [Compound 231]: the IC50 was below 10 nM. For `Cc1ccc(O)c(C)c1-n1c(N)c(C(N)=O)c2ncc(C#CC3OCCC3Cl)nc21` (stereo not drawn) [Compound 233], the concentration for half-maximal inhibition (IC50) is 10 nM. Consider `Cc1ccc(O)c(C)c1-n1c(N)c(C(N)=O)c2ncc(C#CC3OCCC3O)nc21` (stereo not drawn) [Compound 234], for which the IC50 came out at 14 nM. On to `COCCOCC#Cc1cnc2c(n1)c(-c1c(C)ccc(O)c1C)c(N)n2C(N)=O` [Compound 240], for which the IC50 came out at 191 nM. As for `Cc1ccc(O)c(C)c1-n1c(N)c(C(N)=O)c2ncc(C#CC(C)O)nc21` (stereo not drawn) [Compound 241], the IC50 is 24 nM.

`Cc1ccc(O)c(C)c1-n1c(N)c(C(N)=O)c2ncc(C#CC3(O)CCC(F)(F)CC3)nc21` [Compound 242, 6-amino-3-[2-(4,4-difluoro-1-hydroxy-cyclohexyl)ethynyl]-5-(3-hydroxy-2,6-dimethyl-phenyl)pyrrolo[2,3-b]pyrazine-7-carboxamide]: the IC50 was below 10 nM. With `Cc1ccc(O)c(C)c1-n1c(N)c(C(N)=O)c2nc(-c3nc4ccccc4s3)cnc21` [Compound 248] the figure was below 10 nM. As for `Cc1ccc(O)c(C)c1-n1c(N)c(C(N)=O)c2nc(-c3ccnnc3)cnc21` [Compound 250], the IC50 is below 10 nM. For the molecule `C=Cc1cnc2c(n1)c(C(N)=O)c(N)n2-c1c(C)ccc(O)c1C` [Compound 259], the IC50 was below 10 nM. With `Cc1ccc(O)c(C)c1-n1c(N)c(C(N)=O)c2nc3c(nc21)CCCC3` [Compound 262] the figure was below 10 nM. As for `Cc1ccc(O)c(C)c1-n1c(N)c(S(C)(=O)=O)c2nc(-c3cnccn3)cnc21` [Compound 278], the IC50 was above 5000 nM.

Take `Cc1ccc(O)c(Br)c1-n1c(N)c(C(N)=O)c2cc(Cl)cnc21` [Compound 289]: the IC50 was below 10 nM. For `Cc1ccc(O)c(C)c1-n1c(N)c(C(N)=O)c2cc(-c3ccccn3)cnc21` [Compound 295], the half-maximal inhibitory concentration (IC50) was below 10 nM.

Regarding `Cc1ccc(O)c(C)c1-n1c(N)c(C(N)=O)c2cc(N3CCCC3=O)cnc21` [Compound 298], the IC50 is below 10 nM. On to `Cc1ccc(O)c(C)c1-n1c(N)c(C(N)=O)c2cc(C3=CCOCC3)cnc21` [Compound 304], for which the IC50 is below 10 nM. As to `Cc1ccc(O)c(C)c1-n1c(N)c(C(N)=O)c2cc(-c3nccs3)cnc21` [Compound 308], the IC50 was below 10 nM.

On to `Cc1ccc(O)c(C)c1-n1c(N)c(C(N)=O)c2cc(S(=O)(=O)C3CC3)cnc21` [Compound 311], for which the IC50 was below 10 nM. With `Cc1ccc(O)c(C)c1-n1c(N)c(C(N)=O)c2cc(C#N)cnc21` [Compound 312] the figure was below 10 nM.
